What was measured:
[1] = test system: Ristocetin-Induced Platelet Aggregation; assay: Platelet aggregation inhibitory activity: ristocetin-induced platelet aggregation in platelet rich plasma; type: cell-based; details: Cavia porcellus, guinea pig PRP
Protocol: (§1) A blood of a guinea pig was sampled by using a 1/10 volume of a 3.8% sodium citrate as a platelet aggregation inhibitor, and a platelet rich plasma (PRP) was separated by centrifuging the blood sample at 1100 rpm for 10 min. After fractionating the PRP in the upper layer, the lower layer was centrifuged at 3000 rpm for 10 min to fractionate the platelet poor plasma (PPP). To 100 μL of PRP, a 1 μL solution of each compound was added, and after still standing at 37° C. for 1 min, the mixture was stirred at 37° C. for 1 min by a stirrer. Then, 11 μL of collagen, ristocetin, or ADP was added thereto to induce the platelet aggregation. The platelet aggregation ability was measured by using the mCM hematolaser 313M (L-M-S Inc.). Based on the assumption that a light transmittance of PPP corresponds to a 100% coagulation value, an aggregation rate at each concentration of the compound was determined, then, an IC50 value was calculated therefrom.
[Platelet Aggregation Inhibitory Activities: Ristocetin-Induced Platelet Aggregation]

[2] = test system: Collagen-Induced Platelet Aggregation; assay: Platelet aggregation inhibitory activity: collagen-induced platelet aggregation in platelet rich plasma; type: cell-based; details: Cavia porcellus, guinea pig PRP
Protocol: as §1
[Platelet Aggregation Inhibitory Activities: Collagen-Induced Platelet Aggregation]

COc1ccc(-n2c(-c3cc(C)on3)nc3cc(C(F)(F)F)ccc32)nn1 [Example 72, 2-(5-methylisoxazol-3-yl)-1-(6-methoxypyridazin-3-yl)-5-(trifluoromethyl)-1H-benzimidazole]
IC50 [1]: 0.13 µM | IC50 [2]: 0.18 µM

COc1ccc(-n2c(-c3ccccn3)nc3cc(OC(F)F)cnc32)cn1 [Example 146, 6-(difluoromethoxy)-3-(6-methoxypyridin-3-yl)-2-pyridin-2-yl-3H-imidazo[4,5-b]pyridine]
IC50 [1]: 0.066 µM | IC50 [2]: 0.078 µM

COc1ccc(-n2c(-c3ccc(Br)cn3)nc3cc(C(F)(F)F)ccc32)cn1 [Example 20, 2-(5-bromopyridin-2-yl)-1-(6-methoxypyridin-3-yl)-5-(trifluoromethyl)-1H-benzimidazole]
IC50 [1]: 0.21 µM | IC50 [2]: 0.062 µM

COc1ccc(-n2c(-c3ccccn3)nc3cc(OCC4CC4)ccc32)cn1 [Example 31, 5-(cyclopropylmethoxy)-1-(6-methoxypyridin-3-yl)-2-pyridin-2-yl-1H-benzimidazole]
IC50 [1]: 0.87 µM | IC50 [2]: 0.25 µM

COc1ccc(-n2c(-c3ccccn3)nc3cc(OCC(F)(F)F)cnc32)cn1 [Example 175, 3-(6-methoxypyridin-3-yl)-2-pyridin-2-yl-6-(2,2,2-trifluoroethoxy)-3H-imidazo[4,5-b]pyridine]
IC50 [1]: 0.075 µM | IC50 [2]: 0.075 µM

COc1ccc(-n2c(-c3ccc(Cl)cn3)nc3cc(C(F)(F)F)cnc32)cn1 [Example 159, 2-(5-chloropyridin-2-yl)-3-(6-methoxypyridin-3-yl)-6-(trifluoromethyl)-3H-imidazo[4,5-b]pyridine]
IC50 [1]: 0.028 µM | IC50 [2]: 0.028 µM

COc1ccc(-n2c(-c3nccs3)nc3cc(C(F)(F)F)ccc32)nn1 [Example 54, 1-(6-methoxypyridazin-3-yl)-2-(1,3-thiazol-2-yl)-5-(trifluoromethyl)-1H-benzimidazole]
IC50 [1]: 0.1 µM | IC50 [2]: 0.19 µM

COc1ccc(-n2c(-c3coc(C)n3)nc3cc(C(F)(F)F)ccc32)nn1 [Example 139, 1-(6-methoxypyridazin-3-yl)-2-(2-methyl-1,3-oxazol-4-yl)-5-(trifluoromethyl)-1H-benzimidazole]
IC50 [1]: 0.086 µM | IC50 [2]: 0.06 µM

COc1ccc(-n2c(-c3cc(Br)ccn3)nc3cc(C(F)(F)F)ccc32)nn1 [Example 75, 2-(4-bromopyridin-2-yl)-1-(6-methoxypyridazin-3-yl)-5-(trifluoromethyl)-1H-benzimidazole]
IC50 [1]: 0.38 µM | IC50 [2]: 0.2 µM

COc1ccc(-n2c(-c3csc(C)n3)nc3cc(C(F)(F)F)cnc32)cn1 [Example 110, 3-(6-methoxypyridin-3-yl)-2-(2-methyl-1,3-thiazol-4-yl)-6-(trifluoromethyl)-3H-imidazo[4,5-b]pyridine]
IC50 [1]: 0.12 µM | IC50 [2]: 0.13 µM

COc1ccc(-n2c(-c3cocn3)nc3cc(OC(F)(F)F)ccc32)nn1 [Example 155, 1-(6-methoxypyridazin-3-yl)-2-(1,3-oxazol-4-yl)-5-(trifluoromethoxy)-1H-benzimidazole]
IC50 [1]: 0.029 µM | IC50 [2]: 0.029 µM

COc1ccc(-n2c(-c3coc(C)n3)nc3cc(C(F)(F)F)cnc32)cn1 [Example 122, 3-(6-methoxypyridin-3-yl)-2-(2-methyl-1,3-oxazol-4-yl)-6-(trifluoromethyl)-3H-imidazo[4,5-b]pyridine]
IC50 [1]: 0.04 µM | IC50 [2]: 0.034 µM

COc1ccc(-n2c(-c3cc(C)on3)nc3cc(C(F)(F)F)cnc32)cn1 [Example 108, 3-(6-methoxypyridin-3-yl)-2-(5-methylisoxazol-3-yl)-6-(trifluoromethyl)-3H-imidazo[4,5-b]pyridine]
IC50 [1]: 0.1 µM | IC50 [2]: 0.21 µM

COc1ccc(-n2c(-c3ccccn3)nc3cc(OCC(C)C)cnc32)cn1 [Example 174, 6-isobuthoxy-3-(6-methoxypyridin-3-yl)-2-pyridin-2-yl-3H-imidazo[4,5-b]pyridine]
IC50 [1]: 0.087 µM | IC50 [2]: 0.084 µM

COc1ccc(-n2c(-c3ccc([N+](=O)[O-])cn3)nc3cc(C(F)(F)F)ccc32)nn1 [Example 53, 1-(6-methoxypyridazin-3-yl)-2-(5-nitropyridin-2-yl)-5-(trifluoromethyl)-1H-benzimidazole]
IC50 [1]: 0.042 µM | IC50 [2]: 0.057 µM

COc1cnc(-n2c(-c3ccc(F)cn3)nc3cc(C(F)(F)F)cnc32)cn1 [Example 144, 2-(5-fluoropyridin-2-yl)-3-(5-methoxypyrazine-2-yl)-6-(trifluoromethyl)-3H-imidazo[4,5-b]pyridine]
IC50 [1]: 0.022 µM | IC50 [2]: 0.03 µM

COc1ccc(-n2c(-c3cc(C)ccn3)nc3cc(C(F)(F)F)ccc32)nn1 [Example 58, 1-(6-methoxypyridazin-3-yl)-2-(4-methylpyridin-2-yl)-5-(trifluoromethyl)-1H-benzimidazole]
IC50 [1]: 0.28 µM | IC50 [2]: 0.17 µM

COc1ccc(-n2c(-c3cnc(C)cn3)nc3cc(C(F)(F)F)ccc32)nn1 [Example 90, 1-(6-methoxypyridazin-3-yl)-2-(5-methylpyrazine-2-yl)-5-(trifluoromethyl)-1H-benzimidazole]
IC50 [1]: 0.02 µM | IC50 [2]: 0.06 µM

COc1ccc(-n2c(-c3ccccn3)nc3cc(C4CC4)ccc32)cn1 [Example 27, 5-cyclopropyl-1-(6-methoxypyridin-3-yl)-2-pyridin-2-yl-1H-benzimidazole]
IC50 [1]: 0.17 µM | IC50 [2]: 0.19 µM

CCc1ccc2c(c1)nc(-c1ccccn1)n2-c1ccc(OC)nc1 [Example 17, 5-ethyl-1-(6-methoxypyridin-3-yl)-2-pyridin-2-yl-1H-benzimidazole]
IC50 [1]: 0.16 µM | IC50 [2]: 0.11 µM

CSc1ccc(-n2c(-c3ccccn3)nc3cc(C(F)(F)F)ccc32)nn1 [Example 67, 1-[6-(methylthio)pyridazin-3-yl]-2-pyridin-2-yl-5-(trifluoromethyl)-1H-benzimidazole]
IC50 [1]: 0.23 µM | IC50 [2]: 0.17 µM

COc1ccc(-n2c(-c3cnn(C)c3)nc3cc(C(F)(F)F)ccc32)nn1 [Example 15, 1-(6-methoxypyridazin-3-yl)-2-(1-methyl-1H-pyrazol-4-yl)-5-(trifluoromethyl)-1H-benzimidazole]
IC50 [1]: 0.15 µM | IC50 [2]: 0.28 µM

COc1ccc(-n2c(-c3coc(C)n3)nc3cc(OC(F)(F)F)ccc32)nn1 [Example 158, 1-(6-methoxypyridazin-3-yl)-2-(2-methyl-1,3-oxazol-4-yl)-5-(trifluoromethoxy)-1H-benzimidazole]
IC50 [1]: 0.06 µM | IC50 [2]: 0.06 µM

COc1cnc(-n2c(-c3cocn3)nc3cc(C(F)(F)F)cnc32)cn1 [Example 151, 3-(5-methoxypyrazine-2-yl)-2-(1,3-oxazol-4-yl)-6-(trifluoromethyl)-3H-imidazo[4,5-b]pyridine]
IC50 [1]: 0.024 µM | IC50 [2]: 0.024 µM

COc1ccc(-n2c(-c3cscn3)nc3cc(C(F)(F)F)cnc32)cn1 [Example 109, 3-(6-methoxypyridin-3-yl)-2-(1,3-thiazol-4-yl)-6-(trifluoromethyl)-3H-imidazo[4,5-b]pyridine]
IC50 [1]: 0.023 µM | IC50 [2]: 0.095 µM

COc1ccc(-n2c(-c3cccc(F)n3)nc3cc(C(F)(F)F)ccc32)nn1 [Example 2, 2-(6-fluoropyridin-2-yl)-1-(6-methoxypyridazin-3-yl)-5-(trifluoromethyl)-1H-benzimidazole]
IC50 [1]: 0.092 µM | IC50 [2]: 0.18 µM

Source: patent US9533983B2, “Antiplatelet agent” (Mitsubishi Tanabe Pharma Corporation, priority 2009, dated 2017)
